This note sets out measurements from ChEMBL document CHEMBL3044907, “Sensitivity of Fusarium verticillioides isolates from rice to a novel cyanoacrylate fungicide” (Crop Prot, 2012).

In series [1] the test system is Fusarium verticillioides. Description: Fungicidal activity against Fusarium verticilliodes isolate YZ03 in rice seeds harvested from bakane diseased plants assessed as number of seedlings abnormally elongated or exhibiting symptoms of damping-off at 6.25 ug/ml at 30 degC incubated for 72 hr measured after 3 days under greenhouse trials (reference value: 21.3%). Type of series: functional.

Another series concerns Oryza sativa. Description: Effect on germination of healthy Oryza sativa (rice) seed cultivar Xinliangyou 6 at 6.25 to 25 ug/ml at 25 degC after 72 hr. In kind it is ADME, organism-based. The settings on record: in vivo.
In series [2] the test system is Fusarium verticillioides. Description: Fungicidal activity against Fusarium verticilliodes isolate JS02 in rice seeds harvested from bakane diseased plants assessed as number of seedlings abnormally elongated or exhibiting symptoms of damping-off at 25 ug/ml at 30 degC incubated for 72 hr measured after 3 days under greenhouse trials (reference value: 24.9%). In kind it is functional.

The test system of series [3] is Fusarium verticillioides. Description: Fungicidal activity against Fusarium verticilliodes isolate JS01 in rice seeds harvested from bakane diseased plants assessed as number of seedlings abnormally elongated or exhibiting symptoms of damping-off at 6.25 ug/ml at 30 degC incubated for 72 hr measured after 3 days under greenhouse trials (reference value: 32.5%). Type of series: functional.

The test system of series [4] is Fusarium verticillioides. Description: Fungicidal activity against Fusarium verticilliodes isolate YZ22 in rice seeds harvested from bakane diseased plants assessed as number of seedlings abnormally elongated or exhibiting symptoms of damping-off at 25 ug/ml at 30 degC incubated for 72 hr measured after 3 days under greenhouse trials (reference value: 22.5%). In kind it is functional.

The test system of series [5] is Fusarium verticillioides. Description: Fungicidal activity against Fusarium verticilliodes isolate YZ11 in rice seeds harvested from bakane diseased plants assessed as number of seedlings abnormally elongated or exhibiting symptoms of damping-off at 12.5 ug/ml at 30 degC incubated for 72 hr measured after 3 days under greenhouse trials (reference value: 33.7%). Type of series: functional.

Series [6] relates to Fusarium verticillioides. Description: Fungicidal activity against Fusarium verticilliodes isolate JS04 in rice seeds harvested from bakane diseased plants assessed as number of seedlings abnormally elongated or exhibiting symptoms of damping-off at 12.5 ug/ml at 30 degC incubated for 72 hr measured after 3 days under greenhouse trials (reference value: 16.2%). Type of series: functional.

For series [7], the system named is Fusarium verticillioides. Description: Fungicidal activity against Fusarium verticilliodes isolate YZ01 in rice seeds harvested from bakane diseased plants assessed as number of seedlings abnormally elongated or exhibiting symptoms of damping-off at 6.25 ug/ml at 30 degC incubated for 72 hr measured after 3 days under greenhouse trials (reference value: 33.6%). In kind it is functional.

Series [8] relates to Fusarium verticillioides. Description: Fungicidal activity against Fusarium verticilliodes isolate YZ22 in rice seeds harvested from bakane diseased plants assessed as number of seedlings abnormally elongated or exhibiting symptoms of damping-off at 12.5 ug/ml at 30 degC incubated for 72 hr measured after 3 days under greenhouse trials (reference value: 22.5%). In kind it is functional.

Series [9] has as its system Fusarium verticillioides. Description: Fungicidal activity against Fusarium verticilliodes isolate JS07 in rice seeds harvested from bakane diseased plants assessed as number of seedlings abnormally elongated or exhibiting symptoms of damping-off at 8.33 ug/ml at 30 degC incubated for 72 hr measured after 3 days under greenhouse trials (reference value: 33.8%). Type of series: functional.

In series [10] the test system is Fusarium verticillioides. Description: Fungicidal activity against Fusarium verticilliodes isolate N03 in rice seeds harvested from bakane diseased plants assessed as number of seedlings abnormally elongated or exhibiting symptoms of damping-off at 6.25 ug/ml at 30 degC incubated for 72 hr measured after 3 days under greenhouse trials (reference value: 36.1%). In kind it is functional.

For series [11], the system named is Fusarium verticillioides. Description: Fungicidal activity against Fusarium verticilliodes isolate YZ05 in rice seeds harvested from bakane diseased plants assessed as number of seedlings abnormally elongated or exhibiting symptoms of damping-off at 8.33 ug/ml at 30 degC incubated for 72 hr measured after 3 days under greenhouse trials (reference value: 33.3%). In kind it is functional.

The subject of series [12] is Fusarium verticillioides. Description: Fungicidal activity against Fusarium verticilliodes isolate N05 in rice seeds harvested from bakane diseased plants assessed as number of seedlings abnormally elongated or exhibiting symptoms of damping-off at 6.25 ug/ml at 30 degC incubated for 72 hr measured after 3 days under greenhouse trials (reference value: 6.2%). Type of series: functional.

Series [13] deals with Fusarium verticillioides. Description: Fungicidal activity against Fusarium verticilliodes isolate YZ02 in rice seeds harvested from bakane diseased plants assessed as number of seedlings abnormally elongated or exhibiting symptoms of damping-off at 12.5 ug/ml at 30 degC incubated for 72 hr measured after 3 days under greenhouse trials (reference value: 29.8%). In kind it is functional.

Series [14] concerns Fusarium verticillioides. Description: Fungicidal activity against Fusarium verticilliodes isolate JS07 in rice seeds harvested from bakane diseased plants assessed as number of seedlings abnormally elongated or exhibiting symptoms of damping-off at 12.5 ug/ml at 30 degC incubated for 72 hr measured after 3 days under greenhouse trials (reference value: 33.8%). Type of series: functional.

Series [15] relates to Fusarium verticillioides. Description: Fungicidal activity against Fusarium verticilliodes isolate YZ06 in rice seeds harvested from bakane diseased plants assessed as number of seedlings abnormally elongated or exhibiting symptoms of damping-off at 8.33 ug/ml at 30 degC incubated for 72 hr measured after 3 days under greenhouse trials (reference value: 45.3%). Type of series: functional.

Series [16] has as its system Fusarium verticillioides. Description: Fungicidal activity against Fusarium verticilliodes isolate JS08 in rice seeds harvested from bakane diseased plants assessed as number of seedlings abnormally elongated or exhibiting symptoms of damping-off at 12.5 ug/ml at 30 degC incubated for 72 hr measured after 3 days under greenhouse trials (reference value: 13.0%). Type of series: functional.

In series [17] the test system is Fusarium verticillioides. Description: Fungicidal activity against Fusarium verticilliodes in rice seeds harvested from bakane diseased plants assessed as mycelial growth inhibition at 25 degC after 3 to 5 days. Type of series: functional, organism-based.
The subject of series [18] is Fusarium verticillioides. Description: Fungicidal activity against Fusarium verticilliodes isolate JS03 in rice seeds harvested from bakane diseased plants assessed as number of seedlings abnormally elongated or exhibiting symptoms of damping-off at 6.25 ug/ml at 30 degC incubated for 72 hr measured after 3 days under greenhouse trials (reference value: 15.8%). Type of series: functional.

In series [19] the test system is Fusarium verticillioides. Description: Fungicidal activity against Fusarium verticilliodes isolate YZ06 in rice seeds harvested from bakane diseased plants assessed as number of seedlings abnormally elongated or exhibiting symptoms of damping-off at 6.25 ug/ml at 30 degC incubated for 72 hr measured after 3 days under greenhouse trials (reference value: 45.3%). Type of series: functional.

Series [20] has as its system Fusarium verticillioides. Description: Fungicidal activity against Fusarium verticilliodes isolate JS08 in rice seeds harvested from bakane diseased plants assessed as number of seedlings abnormally elongated or exhibiting symptoms of damping-off at 25 ug/ml at 30 degC incubated for 72 hr measured after 3 days under greenhouse trials (reference value: 13.0%). In kind it is functional.

In series [21] the test system is Fusarium verticillioides. Description: Fungicidal activity against Fusarium verticilliodes isolate YZ13 in rice seeds harvested from bakane diseased plants assessed as number of seedlings abnormally elongated or exhibiting symptoms of damping-off at 25 ug/ml at 30 degC incubated for 72 hr measured after 3 days under greenhouse trials (reference value: 26.8%). In kind it is functional.

Series [22] has as its system Fusarium verticillioides. Description: Fungicidal activity against Fusarium verticilliodes isolate N03 in rice seeds harvested from bakane diseased plants assessed as number of seedlings abnormally elongated or exhibiting symptoms of damping-off at 12.5 ug/ml at 30 degC incubated for 72 hr measured after 3 days under greenhouse trials (reference value: 36.1%). In kind it is functional.

Series [23] relates to Fusarium verticillioides. Description: Fungicidal activity against Fusarium verticilliodes isolate YZ09 in rice seeds harvested from bakane diseased plants assessed as number of seedlings abnormally elongated or exhibiting symptoms of damping-off at 6.25 ug/ml at 30 degC incubated for 72 hr measured after 3 days under greenhouse trials (reference value: 17.5%). Type of series: functional.

Values after ≈ are worked out from the molar mass of the structure shown.

As to `CCOC(=O)/C(C#N)=C(/N)c1ccccc1`, the Activity in the series with Fusarium verticillioides [1] is 2%; in the series with Oryza sativa it was “Non-toxic”; in the series with Fusarium verticillioides [2] it was 0%; in the series on Fusarium verticillioides [3] it was 1.6%; with Fusarium verticillioides [4], 0%; in the series with Fusarium verticillioides [5] it was 0%. Further, the Activity worked out at 0% with Fusarium verticillioides [6]; 3.7% with Fusarium verticillioides [7]; 0.5% in the series with Fusarium verticillioides [8]; 0% in the series on Fusarium verticillioides [9]; 0.5% in the series on Fusarium verticillioides [10]; 0% with Fusarium verticillioides [11]. Also, the Activity was 0.4% in the series on Fusarium verticillioides [12]; 0% in the series on Fusarium verticillioides [13]; 0% in the series on Fusarium verticillioides [14]; 0% in the series with Fusarium verticillioides [15]; 0% with Fusarium verticillioides [16]; 1.4% in the series with Fusarium verticillioides [18]. Besides, the Activity in the series with Fusarium verticillioides [19] stood at 1%; with Fusarium verticillioides [20] it was 0%; with Fusarium verticillioides [21] it was 0%; in the series with Fusarium verticillioides [22] it was 0%; in the series on Fusarium verticillioides [23], 2.8%. For the same compound, the EC50 in the series on Fusarium verticillioides [17] worked out at 0.379 µg/mL (≈ 1.75 µM).

By EC50 is commonly meant the midpoint of the concentration-response curve.
